Experimental data taken from patent publication US20250122171A1, “Substituted Amine Compounds, Compositions and Methods of Use” (Deep Apple Therapeutics, Inc., priority 2023, published 2025).
pIC50: −log10 of the molar value.

target: T1, human MRGPRX2 (Homo sapiens, UniProt Q96LB1); assay: MRGPRX2 Activity Assay (IP-1 HTRF, antagonist mode); type: cell-based; details: FlpIn TRex-MRGPRX2-HEK293 cells; versus 1 μM Cortistatin-14 agonist; 30 minutes preincubation
T1 construct: expressed in transfected cells; host or cells: FlpIn TRex HEK293 (TRex-MRGPRX2-HEK), doxycycline-induced
T1 sequence (Q96LB1 1-330): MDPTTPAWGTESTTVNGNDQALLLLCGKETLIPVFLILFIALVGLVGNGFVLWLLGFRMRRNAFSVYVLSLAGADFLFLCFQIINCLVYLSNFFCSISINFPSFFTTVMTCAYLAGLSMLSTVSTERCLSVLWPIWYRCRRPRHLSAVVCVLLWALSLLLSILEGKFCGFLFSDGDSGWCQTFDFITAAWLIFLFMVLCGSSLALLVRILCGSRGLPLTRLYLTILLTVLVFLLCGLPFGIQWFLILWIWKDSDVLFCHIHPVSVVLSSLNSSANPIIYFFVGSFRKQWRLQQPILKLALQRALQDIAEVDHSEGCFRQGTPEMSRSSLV
Procedure: FlpIn TRex-MRGPRX2-HEK293 cells (herein TRex-MRPGRX2-HEK) stably transfected to express human MRGPRX2 were maintained at 37° C. with 5% CO2 and grown in DMEM supplemented with 10% FBS, 1% L-Glutamate, 1% penicillin/streptomycin, 100 ug/mL Hygromycin B, and 15 ug/mL Blasticidin.
GOI (MRGPRX2) expression was induced with 100 ng/mL of Doxycycline 18-24 hours prior to experiment, in flask. On the day of experiment, cells were lifted with TripLE Express and seeded in 384-well white walled opaque bottomed, assay plates, at 8,000 cells per well in 5 uL freshly made assay buffer (HBSS, 20 mM HEPES, 0.1% BSA and 10 mM LiCl). Compounds solubilized in 100% DMSO at 30 mM were serially diluted (1:4) first in 100% DMSO, and an intermediate plate of assay buffer was used to establish a final top concentration of 30 uM (in assay plate). Final DMSO concentration was kept constant at 1% across assay plates. […], at 30 mM stock concentration was solubilized in HBSS+0.1% BSA, stored at −20° C. in 5 μL aliquots and discarded after one freeze-thaw cycle. […].
Antagonist equilibrium was established with 30 minutes preincubation, followed by no wash, direct addition, and stimulation of agonist for 1 hour at 37° C./5% CO2. IP-1 standards and HTRF detection reagents were added according to the IP-one Gq kit protocol purchased from CisBio (part number 62IPAPEJ). The plate was read on an EnVision XCite plate reader. The HTRF ratio was then calculated from raw data (channel1/channel2×10,000) and analyzed using either GraphPad Prism or a custom Python script to calculate IC50 using Log[Antagonist] vs. response (4 parameter) nonlinear regression.

Row | Structure (SMILES) | pIC50
1 | C[C@@H](C(=O)Nc1cn2c(n1)CC[C@@H]2c1cc(F)cc(F)c1)N1CCOCC1 (single isomer, unassigned) [Compound 511] | < 4.52
2 | C[C@H](C(=O)Nc1cn2c(n1)CC[C@@H]2c1cc(F)cc(F)c1)N1CCOCC1 (single isomer, unassigned) [Compound 512] | 5.39
3 | C[C@H](C(=O)Nc1cn2c(n1)CC[C@H]2c1cc(F)cc(F)c1)N1CCOCC1 (single isomer, unassigned) [Compound 513] | < 4.52
4 | C[C@@H](C(=O)Nc1cn2c(n1)CC[C@H]2c1cc(F)cc(F)c1)N1CCOCC1 (single isomer, unassigned) [Compound 514] | < 4.52
5 | C[C@@H](C(=O)Nc1cn2c(n1)CC[C@@H]2c1cc(F)cc(F)c1)N1CCC(F)(F)[C@@](C)(c2cc[n+]([O-])cc2)C1 (single isomer, unassigned) [Compound 519] | < 4.52
6 | C[C@@H](C(=O)Nc1cn2c(n1)CC[C@@H]2c1cc(F)cc(F)c1)N1CCC(F)(F)[C@](C)(c2cc[n+]([O-])cc2)C1 (single isomer, unassigned) [Compound 520] | 6.89
7 | C[C@@H](C(=O)Nc1cn2c(n1)CC[C@@H]2c1cc(F)cc(F)c1)N1CCC2(CC2)[C@@H](c2cc[n+]([O-])cc2)C1 (single isomer, unassigned) [Compound 521] | 5.32
8 | C[C@@H](C(=O)Nc1cn2c(n1)CC[C@@H]2c1cc(F)cc(F)c1)N1CCC2(CC2)[C@H](c2cc[n+]([O-])cc2)C1 (single isomer, unassigned) [Compound 522] | 6.64
9 | C[C@@H](C(=O)Nc1cn2c(n1)CC[C@@H]2c1cc(F)cc(F)c1)N1CCC(F)(F)[C@@H](c2cc[n+]([O-])c(CN3CCC(F)(F)CC3)c2)C1 (single isomer, unassigned) [Compound 534] | < 4.52
10 | C[C@@H](C(=O)Nc1cn2c(n1)CC[C@@H]2c1cc(F)cc(F)c1)N1CCC(F)(F)[C@H](c2cc[n+]([O-])c(CN3CCC(F)(F)CC3)c2)C1 (single isomer, unassigned) [Compound 535] | 7.51
11 | C[C@@H](C(=O)Nc1cc2n(n1)CC[C@@H]2c1cc(F)cc(F)c1)N1CCC(F)(F)[C@@H](c2cc[n+]([O-])cc2)C1 (single isomer, unassigned) [Compound 549] | 6.36
12 | C[C@@H](C(=O)Nc1cc2n(n1)CC[C@H]2c1cc(F)cc(F)c1)N1CCC(F)(F)[C@@H](c2cc[n+]([O-])cc2)C1 (single isomer, unassigned) [Compound 550] | 8.22
13 | O=C(Nc1cn(Cc2cc(F)cc(F)c2)cn1)[C@H]1C(F)(F)C12CCC2 [Compound 30, (S)—N-(1-(3,5-difluorobenzyl)-1H-imidazol-4-yl)-2,2-difluorospiro[2.3]hexane-1-carboxamide] | 6.59
14 | C[C@@H](C(=O)Nc1cn(Cc2ccc(Cl)cc2F)cn1)N1CCC(F)(F)[C@@H](c2cc[n+]([O-])cc2)C1 [Compound 31, 4-((S)-1-((S)-1-((1-(4-chloro-2-fluorobenzyl)-1H-imidazol-4-yl)amino)-1-oxopropan-2-yl)-4,4-difluoropiperidin-3-yl)pyridine 1-oxide] | 6.44
15 | C[C@@H](C(=O)Nc1cn(Cc2cc(F)c(F)c(F)c2F)cn1)N1CCC(F)(F)[C@@H](c2cc[n+]([O-])cc2)C1 [Compound 32, 4-[(3S)-4,4-difluoro-1-[(1S)-1-({1-[(2,3,4,5-tetrafluorophenyl)methyl]imidazol-4-yl}carbamoyl)ethyl]piperidin-3-yl]pyridin-1-ium-1-olate] | 6.98
16 | C[C@@H](C(=O)Nc1cn(Cc2cc(Cl)ccc2F)cn1)N1CCC(F)(F)[C@@H](c2cc[n+]([O-])cc2)C1 [Compound 33, 4-((S)-1-((S)-1-((1-(5-chloro-2-fluorobenzyl)-1H-imidazol-4-yl)amino)-1-oxopropan-2-yl)-4,4-difluoropiperidin-3-yl)pyridine 1-oxide] | 7.52
17 | C[C@@H](C(=O)Nc1cn(Cc2ccc(F)cc2)cn1)N1CCC(F)(F)[C@@H](c2cc[n+]([O-])cc2)C1 [Compound 36, 4-((S)-4,4-difluoro-1-((S)-1-((1-(4-fluorobenzyl)-1H-imidazol-4-yl)amino)-1-oxopropan-2-yl)piperidin-3-yl)pyridine 1-oxide] | 6.68
18 | C[C@@H](C(=O)Nc1cn(Cc2ccccc2F)cn1)N1CCC(F)(F)[C@@H](c2cc[n+]([O-])cc2)C1 [Compound 37, 4-((S)-4,4-difluoro-1-((S)-1-((1-(2-fluorobenzyl)-1H-imidazol-4-yl)amino)-1-oxopropan-2-yl)piperidin-3-yl)pyridine 1-oxide] | 7.27
19 | C[C@@H](C(=O)Nc1cn(Cc2cccc(F)c2)cn1)N1CCC(F)(F)[C@@H](c2cc[n+]([O-])cc2)C1 [Compound 38, 4-((S)-4,4-difluoro-1-((S)-1-((1-(3-fluorobenzyl)-1H-imidazol-4-yl)amino)-1-oxopropan-2-yl)piperidin-3-yl)pyridine 1-oxide] | 7.03
20 | C[C@@H](C(=O)Nc1cn(Cc2cc(F)ccc2F)cn1)N1CCC(F)(F)[C@@H](c2cc[n+]([O-])cc2)C1 [Compound 40, 4-((S)-1-((S)-1-((1-(2,5-difluorobenzyl)-1H-imidazol-4-yl)amino)-1-oxopropan-2-yl)-4,4-difluoropiperidin-3-yl)pyridine 1-oxide] | 7.60
21 | C[C@@H](C(=O)Nc1cn(Cc2ccccc2C(F)(F)F)cn1)N1CCC(F)(F)[C@@H](c2cc[n+]([O-])cc2)C1 [Compound 41, 4-((S)-4,4-difluoro-1-((S)-1-oxo-1-((1-(2-(trifluoromethyl)benzyl)-1H-imidazol-4-yl)amino)propan-2-yl)piperidin-3-yl)pyridine 1-oxide] | 6.57

Other lines, results leading:

Row | pIC50 | Structure (SMILES)
22 | 5.34 | C[C@@H](C(=O)Nc1cn2c(n1)[C@H](O)C[C@@H]2c1cc(F)cc(F)c1)N1CCC(F)(F)[C@@H](c2ccc(=O)[nH]c2)C1 (single isomer, unassigned) [Compound 515]
23 | < 4.52 | C[C@@H](C(=O)Nc1cn2c(n1)[C@@H](O)C[C@@H]2c1cc(F)cc(F)c1)N1CCC(F)(F)[C@@H](c2ccc(=O)[nH]c2)C1 (single isomer, unassigned) [Compound 516]
24 | < 4.52 | C[C@@H](C(=O)Nc1cn2c(n1)[C@@H](O)C[C@H]2c1cc(F)cc(F)c1)N1CCC(F)(F)[C@@H](c2ccc(=O)[nH]c2)C1 (single isomer, unassigned) [Compound 517]
25 | < 4.52 | C[C@@H](C(=O)Nc1cn2c(n1)[C@H](O)C[C@H]2c1cc(F)cc(F)c1)N1CCC(F)(F)[C@@H](c2ccc(=O)[nH]c2)C1 (single isomer, unassigned) [Compound 518]
26 | < 4.52 | C[C@@H](C(=O)Nc1cn2c(n1)CC[C@@H]2c1cc(F)cc(F)c1)N1CCC(F)(F)[C@@H](c2c[nH]c(=O)c(CO)c2)C1 (single isomer, unassigned) [Compound 523]
27 | 7.30 | C[C@@H](C(=O)Nc1cn2c(n1)CC[C@@H]2c1cc(F)cc(F)c1)N1CCC(F)(F)[C@H](c2c[nH]c(=O)c(CO)c2)C1 (single isomer, unassigned) [Compound 524]
28 | 5.26 | C[C@@H](C(=O)Nc1cn2c(n1)CC[C@@H]2c1cc(F)cc(F)c1)N1CCC(F)(F)[C@@H](c2cc[n+]([O-])c(CO)c2)C1 (single isomer, unassigned) [Compound 525]
29 | 8.01 | C[C@@H](C(=O)Nc1cn2c(n1)CC[C@@H]2c1cc(F)cc(F)c1)N1CCC(F)(F)[C@H](c2cc[n+]([O-])c(CO)c2)C1 (single isomer, unassigned) [Compound 526]
30 | 6.99 | C[C@@H](C(=O)Nc1cn2c(n1)CC[C@@H]2c1cc(F)cc(F)c1)N1CCC(F)(F)[C@@H](c2c[nH]c(=O)cn2)C1 (single isomer, unassigned) [Compound 527]
31 | 8.17 | C[C@@H](C(=O)Nc1cn2c(n1)CC[C@@H]2c1cc(F)cc(F)c1)N1CCC(F)(F)[C@H](c2c[nH]c(=O)cn2)C1 (single isomer, unassigned) [Compound 528]
32 | 5.28 | C[C@@H](C(=O)Nc1cn2c(n1)CC[C@@H]2c1cc(F)cc(F)c1)N1CCC(F)(F)[C@@H](c2ccc(=O)n(C)c2)C1 (single isomer, unassigned) [Compound 532]
33 | 7.74 | C[C@@H](C(=O)Nc1cn2c(n1)CC[C@@H]2c1cc(F)cc(F)c1)N1CCC(F)(F)[C@H](c2ccc(=O)n(C)c2)C1 (single isomer, unassigned) [Compound 533]
